Assay [1] deals with SARS-CoV-2. The assay is classed as functional, organism-based. The conditions noted are these: Severe acute respiratory syndrome coronavirus 2, NRC-03-nhCoV, Vero C1008, 72 h.
Assay [2] concerns SARS-CoV-2. Description: Antiviral activity against VSV-S pseudotyped SARS-CoV-2 infected in human Calu-3 cells assessed as inhibition of viral growth. The assay is classed as functional, organism-based. The conditions noted are these: Severe acute respiratory syndrome coronavirus 2, Calu-3.
For assay [3], the system named is SARS-CoV-2. The experiment in a line: microbe, parasite or virus in culture. To be noted: Severe acute respiratory syndrome coronavirus 2, Vero C1008, 24 h.
Assay [4] relates to SARS-CoV-2. The format is functional, organism-based. The conditions noted are these: Severe acute respiratory syndrome coronavirus 2, Huh-7.
Assay [5] relates to SARS-CoV-2. The format is functional, organism-based. To be noted: Severe acute respiratory syndrome coronavirus 2, Huh-7. The source holds these as a separate data set.
For the next assay, the target named is Procathepsin L (Homo sapiens, UniProt P07711). The experiment in a line: Inhibition of Cathepsin L (unknown origin).
Assay [6] has as its system SARS-CoV-2. The experiment in a line: Antiviral activity against SARS-CoV-2 USA-WA1/2020 infected in human Calu-3 cells assessed as reduction in viral replication by qRT-PCR analysis. The assay is classed as functional, organism-based. The conditions noted are these: Severe acute respiratory syndrome coronavirus 2, USA-WA1/2020, Calu-3.
Assay [7] concerns SARS-CoV-2. The format is functional, organism-based. To be noted: Severe acute respiratory syndrome coronavirus 2, Omicron B.1.617.2 delta, 293T/ACE2, 48 h.
Assay [8] relates to SARS-CoV-2. The experiment in a line: Antiviral activity against SARS-CoV-2 USA-WA1/2020 infected in african green monkey Vero C1008 cells assessed as reduction in viral replication by qRT-PCR analysis. The assay is classed as functional, organism-based. The conditions noted are these: Severe acute respiratory syndrome coronavirus 2, USA-WA1/2020, Vero C1008.
The subject of assay [9] is SARS-CoV-2. The assay is classed as functional, organism-based. To be noted: Severe acute respiratory syndrome coronavirus 2, USA-WA1/2020, Huh-7.
The subject of assay [10] is SARS-CoV-2. Description: microbe, parasite or virus in culture. To be noted: Severe acute respiratory syndrome coronavirus 2, Vero C1008, 24 h. This is another data set of the same source.
Assay [11] deals with SARS-CoV-2. Description: microbe, parasite or virus in culture. The conditions noted are these: Severe acute respiratory syndrome coronavirus 2, Calu-3, 48 h.
Assay [12] deals with SARS-CoV-2. Description: Antiviral activity against SARS-CoV-2 WA1/2020 infected in human Calu-3 cells preincubated for 2 hrs followed by viral infection and measured after 48 hrs by microscopy analysis. To be noted: Severe acute respiratory syndrome coronavirus 2, WA1/2020, Calu-3. The format is functional, organism-based.
The test system of assay [13] is SARS-CoV-2. The experiment in a line: microbe, parasite or virus in culture. To be noted: Severe acute respiratory syndrome coronavirus 2, Huh-7.
For assay [14], the system named is SARS-CoV-2. Description: microbe, parasite or virus in culture. The conditions noted are these: Severe acute respiratory syndrome coronavirus 2, USA-WA1/2020, Vero 76, 72 h.
In assay [15] the target is T1, 1-phosphatidylinositol 3-phosphate 5-kinase (Homo sapiens, UniProt Q9Y2I7). The experiment in a line: Binding affinity to N-terminal His-tagged human PIKfyve expressed in Sf9 cells assessed as dissociation constant.
The subject of assay [16] is SARS-CoV-2. The format is functional, organism-based. To be noted: Severe acute respiratory syndrome coronavirus 2, Vero C1008, 72 h.
Another assay concerns the target Neuropilin-1 (Homo sapiens, UniProt O14786). The experiment in a line: Inhibition of [125I]-VEGF-A165 binding to NRP1 (unknown origin) in HUVEC cells. The assay is classed as cell-based.
Assay [17] relates to SARS-CoV-2. The experiment in a line: microbe, parasite or virus in culture. The conditions noted are these: Severe acute respiratory syndrome coronavirus 2, Huh-7. The source holds these as a separate data set.
Assay [18] addresses Replicase polyprotein 1ab (Severe acute respiratory syndrome coronavirus 2, UniProt P0DTD1). The experiment in a line: Inhibition of SARS-CoV-2 MPro expressed in Escherichia coli BL21 (DE3) using Dabcyl-KTSAVLQSGFRKME-Edans as substrate incubated for 1 hr by fluorescence based analysis.
The test system of assay [19] is SARS-CoV-2. The assay is classed as functional, organism-based. To be noted: Severe acute respiratory syndrome coronavirus 2, Vero C1008, 48 h.
Assay [20] has as its target T1, 1-phosphatidylinositol 3-phosphate 5-kinase. The experiment in a line: Inhibition of PIKfyve (unknown origin).

Where a SMILES comes first, the peptide text is derived from it. The star is where a group is joined. Cbz = O=C(OCc1ccccc1)*

T1 sequence (Q9Y2I7 whole entry): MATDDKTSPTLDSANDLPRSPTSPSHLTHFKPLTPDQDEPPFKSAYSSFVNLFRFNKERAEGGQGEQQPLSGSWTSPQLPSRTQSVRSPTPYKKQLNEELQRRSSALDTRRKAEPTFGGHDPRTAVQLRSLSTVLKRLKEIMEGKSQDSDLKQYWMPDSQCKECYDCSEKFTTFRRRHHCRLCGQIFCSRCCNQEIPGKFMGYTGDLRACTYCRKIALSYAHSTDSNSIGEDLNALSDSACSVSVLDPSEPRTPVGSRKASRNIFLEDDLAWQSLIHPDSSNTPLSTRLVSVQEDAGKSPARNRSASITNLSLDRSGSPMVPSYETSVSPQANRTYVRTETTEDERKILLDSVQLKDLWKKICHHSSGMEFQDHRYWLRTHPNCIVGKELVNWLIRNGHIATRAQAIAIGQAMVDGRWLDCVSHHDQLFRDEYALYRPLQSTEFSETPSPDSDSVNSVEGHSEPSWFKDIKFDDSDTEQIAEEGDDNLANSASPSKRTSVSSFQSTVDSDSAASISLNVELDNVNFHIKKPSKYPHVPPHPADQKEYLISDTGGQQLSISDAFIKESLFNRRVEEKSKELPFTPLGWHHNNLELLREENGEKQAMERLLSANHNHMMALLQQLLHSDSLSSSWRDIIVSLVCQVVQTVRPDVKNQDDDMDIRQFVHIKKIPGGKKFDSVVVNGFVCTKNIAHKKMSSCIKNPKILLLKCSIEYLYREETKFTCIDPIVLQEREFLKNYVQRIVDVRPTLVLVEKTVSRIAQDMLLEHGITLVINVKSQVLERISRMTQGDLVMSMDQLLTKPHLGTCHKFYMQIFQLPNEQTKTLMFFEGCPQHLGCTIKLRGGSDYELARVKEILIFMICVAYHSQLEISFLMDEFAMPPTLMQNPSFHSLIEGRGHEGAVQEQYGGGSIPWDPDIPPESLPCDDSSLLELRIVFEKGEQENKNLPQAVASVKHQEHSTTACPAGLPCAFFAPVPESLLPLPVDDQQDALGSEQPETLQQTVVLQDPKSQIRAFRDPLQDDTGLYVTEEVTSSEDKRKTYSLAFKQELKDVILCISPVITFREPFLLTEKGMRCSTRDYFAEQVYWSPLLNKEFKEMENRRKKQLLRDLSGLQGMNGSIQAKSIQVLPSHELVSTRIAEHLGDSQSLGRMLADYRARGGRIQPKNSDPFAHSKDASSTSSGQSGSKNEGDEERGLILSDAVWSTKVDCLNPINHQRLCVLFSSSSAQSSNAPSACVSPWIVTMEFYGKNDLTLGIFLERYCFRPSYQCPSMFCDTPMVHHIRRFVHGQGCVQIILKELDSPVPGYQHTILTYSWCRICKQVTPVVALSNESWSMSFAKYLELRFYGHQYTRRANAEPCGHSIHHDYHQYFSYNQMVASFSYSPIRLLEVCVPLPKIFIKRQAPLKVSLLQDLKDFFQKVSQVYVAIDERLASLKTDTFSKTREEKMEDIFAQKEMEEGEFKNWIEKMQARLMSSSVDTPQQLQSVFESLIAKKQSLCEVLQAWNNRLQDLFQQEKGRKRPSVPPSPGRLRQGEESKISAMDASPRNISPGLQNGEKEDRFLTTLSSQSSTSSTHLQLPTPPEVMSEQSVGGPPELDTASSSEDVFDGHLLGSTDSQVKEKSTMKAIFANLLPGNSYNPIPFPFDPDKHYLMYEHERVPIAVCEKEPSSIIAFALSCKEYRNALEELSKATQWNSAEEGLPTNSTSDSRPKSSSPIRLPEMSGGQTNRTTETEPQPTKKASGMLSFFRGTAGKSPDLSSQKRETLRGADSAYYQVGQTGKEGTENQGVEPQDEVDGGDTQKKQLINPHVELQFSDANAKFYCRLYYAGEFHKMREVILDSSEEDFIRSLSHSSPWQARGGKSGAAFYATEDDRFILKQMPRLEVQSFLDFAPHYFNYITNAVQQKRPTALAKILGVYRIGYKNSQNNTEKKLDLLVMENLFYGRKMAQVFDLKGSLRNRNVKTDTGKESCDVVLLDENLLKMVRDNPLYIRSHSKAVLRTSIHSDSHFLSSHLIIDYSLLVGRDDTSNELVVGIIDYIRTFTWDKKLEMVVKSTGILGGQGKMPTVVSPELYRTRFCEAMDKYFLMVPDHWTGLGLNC
Neuropilin-1, sequence (O14786 whole entry): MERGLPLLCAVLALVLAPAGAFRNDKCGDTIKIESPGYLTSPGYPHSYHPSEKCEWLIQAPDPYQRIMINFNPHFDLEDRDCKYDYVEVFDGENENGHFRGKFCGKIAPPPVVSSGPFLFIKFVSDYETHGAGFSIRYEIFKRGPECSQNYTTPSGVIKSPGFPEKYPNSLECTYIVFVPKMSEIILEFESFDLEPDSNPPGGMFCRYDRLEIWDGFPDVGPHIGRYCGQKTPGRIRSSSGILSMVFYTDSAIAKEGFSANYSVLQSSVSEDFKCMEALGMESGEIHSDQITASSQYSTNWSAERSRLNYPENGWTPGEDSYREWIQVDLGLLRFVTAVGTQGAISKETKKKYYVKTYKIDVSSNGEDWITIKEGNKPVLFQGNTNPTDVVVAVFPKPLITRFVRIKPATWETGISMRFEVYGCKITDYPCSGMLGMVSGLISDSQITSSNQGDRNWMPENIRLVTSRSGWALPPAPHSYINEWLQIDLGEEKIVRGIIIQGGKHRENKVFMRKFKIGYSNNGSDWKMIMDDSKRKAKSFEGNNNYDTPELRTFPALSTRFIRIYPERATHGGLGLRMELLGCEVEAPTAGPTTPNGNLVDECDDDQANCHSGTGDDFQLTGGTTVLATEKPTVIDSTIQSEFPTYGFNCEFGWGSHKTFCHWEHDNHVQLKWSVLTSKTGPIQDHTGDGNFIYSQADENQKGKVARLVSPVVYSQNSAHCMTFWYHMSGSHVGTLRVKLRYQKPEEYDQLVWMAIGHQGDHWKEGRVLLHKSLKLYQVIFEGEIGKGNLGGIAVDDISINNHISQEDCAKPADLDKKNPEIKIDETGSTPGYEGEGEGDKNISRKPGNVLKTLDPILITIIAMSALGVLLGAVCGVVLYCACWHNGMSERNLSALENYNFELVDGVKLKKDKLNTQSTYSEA
Procathepsin L, sequence (P07711 whole entry): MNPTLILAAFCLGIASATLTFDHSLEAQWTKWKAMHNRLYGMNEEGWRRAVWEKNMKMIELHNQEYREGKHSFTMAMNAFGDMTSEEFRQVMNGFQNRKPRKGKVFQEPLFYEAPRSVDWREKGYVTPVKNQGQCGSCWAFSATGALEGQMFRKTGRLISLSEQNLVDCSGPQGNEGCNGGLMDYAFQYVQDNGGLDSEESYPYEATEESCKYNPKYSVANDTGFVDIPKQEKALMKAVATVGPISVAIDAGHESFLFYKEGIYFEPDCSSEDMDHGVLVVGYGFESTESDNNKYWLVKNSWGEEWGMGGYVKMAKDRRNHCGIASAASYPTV

In turn, `COc1ccccc1/C=N/NC(=N)c1nonc1NCNc1nonc1C(=N)N/N=C/c1ccccc1OC` showed an IC50 in the assay on SARS-CoV-2 [1] of 19 nM.

Take `CC(=O)N[C@@H](CO)C(=O)N[C@@H](CCCCN)C(=O)N[C@@H](CC(C)C)C(=O)N[C@@H](CCCNC(=N)N)C(=O)c1nc2ccccc2s1`: the EC50 with SARS-CoV-2 [2] is 4270 nM. Compound `O=C[C@H](Cc1ccc(O)cc1)NC(=O)[C@H](Cc1ccccc1)NC(=O)OCc1ccccc1` (Cbz-Phe-Tyr-aldehyde) gave a half-maximal effective concentration (EC50) in the assay on SARS-CoV-2 [3] of 620 nM. In the assay with SARS-CoV-2 [3], `CC(C)(C)OC(=O)N[C@@H](Cc1c[nH]c2ccccc12)C(=O)NNC(=O)OCC(=O)N1CCCc2ccccc21` registered an EC50 of 10900 nM. For the compound `CC(C)C[C@@H](C=O)NC(=O)[C@H](CC(C)C)NC(=O)[C@H](CC(C)C)NC(=O)OCc1ccccc1` [MG-132] (Cbz-Leu-Leu-Leu-aldehyde), the EC50 was 212 nM in the assay on SARS-CoV-2 [4] and 210 nM in the assay with SARS-CoV-2 [5]. The same compound came in with an IC50 at Procathepsin L of 12.3 nM.

As for `N=C(N)NCCCCC(=O)Nc1cc(C(F)(F)F)cc(NC(=O)c2cc(C(=O)Nc3cc(C(F)(F)F)cc(NC(=O)CCCCNC(=N)N)c3O[C@@H]3CCNC3)ncn2)c1O[C@@H]1CCNC1` [BRILACIDIN], the IC50 in the assay on SARS-CoV-2 [6], with SARS-CoV-2 [7], with SARS-CoV-2 [8] and in the assay on SARS-CoV-2 [9] was 12000 nM throughout. As for `C#Cc1cccc(Nc2ncnc3cc(OCCOC)c(OCCOC)cc23)c1` [ERLOTINIB], the EC50 in the assay with SARS-CoV-2 [10] and with SARS-CoV-2 [11] was more than 20000 nM in each case. With `CC(=O)NCC(=O)N[C@@H](CCC(N)=O)C(=O)N[C@@H](Cc1ccccc1)C(=O)N[C@@H](CCCNC(=N)N)C(=O)c1nc2ccccc2s1`, the 50% effective concentration (EC50) with SARS-CoV-2 [2] was 0.43 nM. In the assay with SARS-CoV-2 [12], the concentration for half-maximal inhibition (IC50) stood at 74 nM. In turn, `CCOC(=O)[C@H]1O[C@@H]1C(=O)N[C@@H](CC(C)C)C(=O)NCCC(C)C` [ALOXISTATIN] displayed an EC50 in the assay with SARS-CoV-2 [3] of 270 nM. For the compound `CCCC[C@@H](C=O)NC(=O)[C@H](CC(C)C)NC(=O)OCc1ccccc1` [CALPEPTIN], the EC50 stood at 29800 nM in the assay on SARS-CoV-2 [13] and 1030 nM in the assay on SARS-CoV-2 [14]. On to `Ic1cccc(/C=N/Nc2nc(N3CCOCC3)nc(N(c3ccccc3)c3ccccc3)n2)c1`, for which, in assay [15], the Kd stood at 32 nM. Regarding `Cc1ccc(NC(=O)c2cccc(C(F)(F)F)c2)cc1Nc1nc(-c2ccncc2)c2[nH]ccc2n1`, the Kd in assay [15] is more than 30000 nM. In the assay on SARS-CoV-2 [16], this compound registered an EC50 of 12300 nM. Compound `Cc1nc(N2CCOCC2)ncc1-c1cc(=O)[nH]c(Nc2ccccc2)n1` displayed an IC50 at Neuropilin-1 of 0.598 nM. With `CC(=O)N1CCC[C@H]1C(=O)N[C@@H](CCC(N)=O)C(=O)N[C@@H](Cc1ccccc1)C(=O)N[C@@H](CCCNC(=N)N)C(=O)c1nc2ccccc2s1`, the concentration giving a half-maximal response (EC50) with SARS-CoV-2 [2] is 0.86 nM. The same compound came in with an IC50 in the assay on SARS-CoV-2 [12] of 105 nM.

`N=C(N/N=C/c1ccncc1)c1nonc1NCNc1nonc1C(=N)N/N=C/c1ccncc1` registered an IC50 in the assay on SARS-CoV-2 [1] of 16 nM. With `CC(=O)N[C@@H](CC(C)C)C(=O)N[C@@H](CC(C)C)C(=O)N[C@H](C=O)CCCNC(=N)N`, the concentration for a half-maximal effect (EC50) in the assay with SARS-CoV-2 [4] is 10600 nM; in the assay with SARS-CoV-2 [17], 39300 nM. In assay [18], this compound gave a half-maximal inhibitory concentration (IC50) of 127000 nM. Regarding `C[C@H](NC(=O)[C@H](Cc1ccccc1)NC(=O)OCc1ccccc1)C(=O)CF`, the EC50 with SARS-CoV-2 [4] amounted to 9610 nM; in the assay with SARS-CoV-2 [17], 701000 nM. With `CCC(O)(CC)c1ccc2[nH]c3c(c2c1)Cc1nc(N)ncc1CC3`, the concentration for half-maximal inhibition (IC50) with SARS-CoV-2 [19] worked out at 23.9 nM; in [20], 1.8 nM.
